Laboratory results as given in PMC8040948 (Journal of medicinal chemistry, 2020).
“Also recorded” adds a separate entry of the source. Like-named read-outs stand apart in the source and are kept apart here. One block for each compound: values may come before it.

Tests used:
hP2Y14R = target: T1, hP2Y14R (Homo sapiens, UniProt Q15391); format: binding; conditions: for fold lower hP2Y14R affinity than 2: relative to reference triazole 2; for fold lower hP2Y14R affinity than 22: relative to reference 22
T1 sequence (Q15391 1-338): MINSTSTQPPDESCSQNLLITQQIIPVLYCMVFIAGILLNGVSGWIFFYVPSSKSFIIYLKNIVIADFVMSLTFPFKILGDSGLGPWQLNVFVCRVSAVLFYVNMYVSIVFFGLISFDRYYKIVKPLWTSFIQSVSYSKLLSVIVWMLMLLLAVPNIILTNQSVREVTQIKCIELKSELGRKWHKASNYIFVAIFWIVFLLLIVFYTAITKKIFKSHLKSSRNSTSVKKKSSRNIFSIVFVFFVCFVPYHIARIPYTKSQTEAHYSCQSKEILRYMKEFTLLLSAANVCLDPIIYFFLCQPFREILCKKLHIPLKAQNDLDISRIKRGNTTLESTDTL

[1] = Plasma protein binding in three species
ASP/OVA-sensitized mice = assay: Ovalbumin/Aspergillus protease mouse model of allergic asthma, BALF cell counts; conditions: 10 mg/kg ip 30 min prior to allergen challenge, BALF 2 days post-challenge
[2] = system: 46 receptors, transporters, and ion channels; conditions: non-P2YR off-target screen; ref [8],[9]; cited from earlier work
[3] = system: CCI of the sciatic nerve in adult male ICR mice; conditions: mouse, 10 μmol/kg, ip; ref Mufti et al.[12]; cited from earlier work
CB2 cannabinoid receptor = CB2 cannabinoid receptor (Homo sapiens, UniProt P34972); assay: PDSP functional agonist/antagonist assay, CB2; format: cell-based
CB1 cannabinoid receptor = CB1 cannabinoid receptor (Homo sapiens, UniProt P21554); assay: PDSP functional agonist/antagonist assay, CB1; format: cell-based
CB1 cannabinoid receptor, sequence (P21554 whole entry): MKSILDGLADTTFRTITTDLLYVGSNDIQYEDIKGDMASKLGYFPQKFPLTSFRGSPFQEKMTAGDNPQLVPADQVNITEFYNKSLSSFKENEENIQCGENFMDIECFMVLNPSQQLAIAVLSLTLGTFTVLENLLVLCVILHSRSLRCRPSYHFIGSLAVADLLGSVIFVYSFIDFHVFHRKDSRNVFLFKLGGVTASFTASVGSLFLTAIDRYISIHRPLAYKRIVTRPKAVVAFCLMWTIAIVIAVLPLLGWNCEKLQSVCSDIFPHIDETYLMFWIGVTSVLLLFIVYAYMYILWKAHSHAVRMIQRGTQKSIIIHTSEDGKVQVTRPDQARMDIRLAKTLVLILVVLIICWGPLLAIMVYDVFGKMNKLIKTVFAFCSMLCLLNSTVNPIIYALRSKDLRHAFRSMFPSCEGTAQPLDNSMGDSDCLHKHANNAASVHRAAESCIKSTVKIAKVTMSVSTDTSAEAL

CB2 cannabinoid receptor, sequence (P34972 whole entry): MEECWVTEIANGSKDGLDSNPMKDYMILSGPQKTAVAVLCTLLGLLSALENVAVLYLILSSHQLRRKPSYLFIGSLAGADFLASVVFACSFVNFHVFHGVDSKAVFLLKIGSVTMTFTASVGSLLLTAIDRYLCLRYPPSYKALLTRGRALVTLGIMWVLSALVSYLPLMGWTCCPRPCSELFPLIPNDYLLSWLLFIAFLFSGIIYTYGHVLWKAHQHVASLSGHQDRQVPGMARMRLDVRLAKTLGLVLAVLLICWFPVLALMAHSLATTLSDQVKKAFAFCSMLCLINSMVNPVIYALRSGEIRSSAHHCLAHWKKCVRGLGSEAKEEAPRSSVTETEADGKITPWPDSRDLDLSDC

SMILES: C[N+]12CCC(c3ccc(-c4cc(C(=O)O)cc5cc(-c6ccc(C(F)(F)F)cc6)ccc45)cc3)(CC1)CC2 [Compound 21, 4-(4-(1-Methylquinuclidin-1-ium-4-yl)phenyl)-7-(4-(trifluoromethyl)phenyl)-2-naphthoate]
- plasma protein binding [1]: high

SMILES: C#CCCCCN1CCC(c2ccc(-c3cc(C(=O)O)cc4cc(-c5ccc(C(F)(F)F)cc5)ccc34)cc2)CC1 [Compound 7a, 4-(4-(1-(Hex-5-yn-1-yl)piperidin-4-yl)phenyl)-7-(4-(trifluoromethyl)phenyl)-2-naphthoic Acid]
- effect on eosinophilic airway inflammation (ASP/OVA-sensitized mice): protected; also recorded: highest potency of reducing eosinophil infiltration
- off-target interactions [2]: no detected off-target interactions

SMILES: NCCCNC(=O)c1ccc(-c2cc(C(=O)O)cc(-n3cc(-c4ccc(C(F)(F)F)cc4)nn3)c2)s1 [Compound 23, reference compound]
- effect on eosinophilic airway inflammation (ASP/OVA-sensitized mice): protected
- plasma protein binding [1]: high

SMILES: O=C(O)c1cc(-c2ccc(C34CCNCC3C4(F)F)cc2)cc(-n2cc(-c3ccc(C(F)(F)F)cc3)nn2)c1 (centres unmarked) [Compound 20, 4′-(7,7-Difluoro-3-azabicyclo[4.1.0]heptan-6-yl)-5-(4-(4-(trifluoromethyl)phenyl)-1H-1,2,3-triazol-1-yl)-[1,1′-biphenyl]-3-carboxylic Acid]
- fold lower hP2Y14R affinity than 2 (hP2Y14R): 20 fold

SMILES: CCCN1CCC(c2ccc(-c3cc(C(=O)O)cc4cc(-c5ccc(C(F)(F)F)cc5)ccc34)cc2)CC1 [Compound 6b, 4-(4-(1-Propylpiperidin-4-yl)phenyl)-7-(4-(trifluoromethyl)phenyl)-2-naphthoic Acid]
- off-target interactions [2]: no detected off-target interactions

SMILES: CC(=O)N1CCC(c2ccc(-c3cc(C(=O)O)cc4cc(-c5ccc(C(F)(F)F)cc5)ccc34)cc2)CC1 [Compound 8, 4-(4-(1-(Acetyl)piperidin-4-yl)phenyl)-7-(4-(trifluoromethyl)phenyl)-2-naphthoic Acid]
- efficacy in CCI model [3]: effective

SMILES: O=C(O)c1cc(-c2ccc(C34CCNCC3C4)cc2)cc(-n2cc(-c3ccc(C(F)(F)F)cc3)nn2)c1 (centres unmarked) [Compound 19, 4′-(3-Azabicyclo[4.1.0]heptan-6-yl)-5-(4-(4-(trifluoromethyl)phenyl)-1H-1,2,3-triazol-1-yl)-[1,1′-biphenyl]-3-carboxylic Acid]
- fold lower hP2Y14R affinity than 2 (hP2Y14R): 11 fold

Next, values leading:

- IC50 (hP2Y14R; IC50 at hP2Y14R): > 100 µM
SMILES: O=C(O)c1cc(-c2ccc(C3CCNCC3)cc2)c2nc(-c3ccc(C(F)(F)F)cc3)[nH]c2c1 [Compound 35, 4-(4-(Piperidin-4-yl)phenyl)-2-(4-(trifluoromethyl)phenyl)-1H-benzo[d]imidazole-6-carboxylic Acid]

- fold lower hP2Y14R affinity than 22 (hP2Y14R): 6.2 fold
SMILES: NC(=O)c1ccc(-c2cc(C(=O)O)cc(-c3cn(-c4ccc(C(F)(F)F)cc4)nn3)c2)cc1 [Compound 24, 4′-Carbamoyl-5-(1-(4-(trifluoromethyl)phenyl)-1H-1,2,3-triazol-4-yl)-[1,1′-biphenyl]-3-carboxylic Acid]

- plasma protein binding [1]: high
- IC50 (CB2 cannabinoid receptor): > 10 µM
- IC50 (CB1 cannabinoid receptor): > 10 µM
SMILES: O=C(O)c1cc(-c2ccc(C3CCNCC3)cc2)cc(-c2cn(-c3ccc(C(F)(F)F)cc3)nn2)c1 [Compound 25, 4′-(Piperidin-4-yl)-5-(1-(4-(trifluoromethyl)phenyl)-1H-1,2,3-triazol-4-yl)-[1,1′-biphenyl]-3-carboxylic Acid]

- fold lower hP2Y14R affinity than 22 (hP2Y14R): 11 fold
SMILES: NC(=O)c1ccc(-c2cc(NC(=O)c3ccc(C(F)(F)F)cc3)cc(C(=O)O)c2)cc1 [Compound 27, 4′-Carbamoyl-5-(4-(trifluoromethyl)benzamido)-[1,1′-biphenyl]-3-carboxylic Acid]

- IC50 (hP2Y14R; IC50 (μM), Table 1B, cells that print only footnote mark c): > 100 µM
- IC50 (hP2Y14R; IC50 at hP2Y14R): > 100 µM
SMILES: O=C(O)c1cc(NC(=O)C23C4C5C2C2C3C4C52CO)cc(-c2ccc(C3CCNCC3)cc2)c1 (centres unmarked) [Compound 28, 5-(4-(Hydroxymethyl)cubane-1-carboxamido)-4′-(piperidin-4-yl)-[1,1′-biphenyl]-3-carboxylic Acid]
